The results in this text go back to patent publication US20140295012A1, “LATENT HUMAN IMMUNODEFICIENCY VIRUS REACTIVATION” (priority 2011, published 2014).

Assay [1] concerns latently HIV-1 infected primary T cells. Put plainly: Reactivation of latent HIV-1 infection in primary T cells (GFP). The assay is classed as cell-based. The note with it: 24 hours. On the procedure: Latently HIV-1 infected primary T cells were treated for 24 hours with aclacinomycin (ACM) or dactinomycin (ActD), or with the anti-CD3 monoclonal antibody (mAb) OKT3. Reactivation levels were determined as a percentage of GFP-positive cells 24 hours after stimulation. Viability of the cells correlates with the size of the symbol.
To determine if aclacinomycin or dactinomycin were capable of reactivating a latent HIV-1 infection in primary T cells, latently HIV-1 infected primary T cells were treated with aclacinomycin or dactinomycin or with the anti-CD3 monoclonal antibody OKT3 for 24 hours. Reactivation of the latent HIV-1 infection was observed by increasing levels of GFP fluorescence.

For assay [2], the system named is latently HIV-1 infected CA5 T cells. The format is cell-based. The note with it: CA5 cells pretreated with increasing concentrations. On the procedure: Infection levels in the cell cultures were monitored by flow cytometric analysis of EGFP expression. Flow cytometric analysis was performed on a GUAVA EasyCyte (Millipore; Billerica, Mass.), or a LSRII (Becton & Dickinson; Franklin Lakes, N.J.).
Bacterial growth. Bacteria from various sources were isolated on TSA II agar plates containing 5% sheep blood. Bacterial isolates were then grown in RPMI 1640 medium supplemented with 10% FBS. After two days of incubation at 37° C. bacteria were pelleted and resuspended in RPMI medium to an optical density (OD600) of 8, aliquoted and frozen at −80° C. Unless otherwise indicated, Massilia timonae was grown in RPMI 1640 medium supplemented with 10% FBS. Typically, medium was inoculated with Massilia timonae from frozen stocks to an OD600 of 0.01. After 48 hours at 37° C., the culture was centrifuged at 3200 g to separate bacteria from the culture medium. Bacteria were resuspended in fresh medium to an OD600 of 8 and frozen to be used as references and stock cultures. The supernatant was then centrifuged at 10,000 g for 20 minutes and sterilized by passage through a 0.2 μm PVDF filter with low protein binding ability. HRF activity was determined by its ability to reactivate latent HIV-1 infection in CA5 cells. Only supernatants of which 6 μl reactivated infection in at least 60% of CA5 cells were used to study HRF properties.
Flow cytometry. Infection levels in the cell cultures were monitored by flow cytometric (FCM) analysis of GFP expression. FCM analysis was performed on a GUAVA EasyCyte (GUAVA Technologies, Inc.; Millipore; Billerica, Mass.) and a BD FACSCalibur or a LSRII (Becton & Dickinson; Franklin Lakes, N.J.). Cell sorting experiments were performed using a FACSAria™ Flow Cytometer (Becton&Dickinson). Data analysis was performed using either CellQuest (Becton&Dickinson) or GUAVA Express (GUAVA Technologies, Inc.).
To identify the optimal concentration of dactinomycin, CA5 T cells were pretreated with increasing concentrations of dactinomycin (0.0001 and 1 μg/ml), and then left untreated or stimulated with a sub-optimal concentration of HRF or TNF-α. Representative results for stimulation with HRF are depicted in FIG. 3. The chosen HRF concentration has only minimal HIV-1 reactivating effect by itself (15% reactivation over background). Twenty four hours after activator addition, levels of HIV-1 reactivation were determined as the percentage of GFP-positive cells using flow cytometric analysis, which allowed for the simultaneous determination of cell viability. […] Optimal pretreatment time was 18 hours. Maximum reactivation effects were seen 48 hours after stimulation.

In assay [3] the target is T1, positive transcription elongation factor (P-TEFb), a complex of CDK9 and Cyclin T1 (UniProt P50750 1-372; O60563 1-726).
T1 construct: also called CDK9/CycT1
Put plainly: glycerol gradient (10-45%) sedimentation of J89GFP cell lysates, Western blot of the fractions with anti-CDK9 and anti-HEXIM-1. On the technique in general: In western blotting, separated proteins are transferred to a membrane and probed.
Procedure: Each gradient fraction was separated on a 10% SDS-PAGE gel and transferred by Western blot. […] Band densities were determined using ImageJ and are presented as relative band density. […] Band densities were determined using ImageJ and are presented as relative band density.
Fractions were resolved on 10% SDS-PAGE and transferred to polyvinylidene fluoride membrane.
Each gradient fraction was separated on a SDS-PAGE gel and subjected to Western blotting.

T1 sequence (P50750 whole entry, chain 1 of 2): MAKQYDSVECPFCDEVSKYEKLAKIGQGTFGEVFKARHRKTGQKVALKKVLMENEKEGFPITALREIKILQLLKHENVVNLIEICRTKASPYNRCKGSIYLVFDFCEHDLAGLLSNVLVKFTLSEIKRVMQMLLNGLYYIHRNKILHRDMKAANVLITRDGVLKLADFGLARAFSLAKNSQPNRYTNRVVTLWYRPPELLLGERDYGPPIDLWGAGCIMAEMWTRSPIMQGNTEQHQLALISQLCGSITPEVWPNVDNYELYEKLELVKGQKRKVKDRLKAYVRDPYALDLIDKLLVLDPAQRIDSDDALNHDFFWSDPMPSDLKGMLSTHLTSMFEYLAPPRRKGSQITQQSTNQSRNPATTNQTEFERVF
T1 sequence (O60563 whole entry, chain 2 of 2): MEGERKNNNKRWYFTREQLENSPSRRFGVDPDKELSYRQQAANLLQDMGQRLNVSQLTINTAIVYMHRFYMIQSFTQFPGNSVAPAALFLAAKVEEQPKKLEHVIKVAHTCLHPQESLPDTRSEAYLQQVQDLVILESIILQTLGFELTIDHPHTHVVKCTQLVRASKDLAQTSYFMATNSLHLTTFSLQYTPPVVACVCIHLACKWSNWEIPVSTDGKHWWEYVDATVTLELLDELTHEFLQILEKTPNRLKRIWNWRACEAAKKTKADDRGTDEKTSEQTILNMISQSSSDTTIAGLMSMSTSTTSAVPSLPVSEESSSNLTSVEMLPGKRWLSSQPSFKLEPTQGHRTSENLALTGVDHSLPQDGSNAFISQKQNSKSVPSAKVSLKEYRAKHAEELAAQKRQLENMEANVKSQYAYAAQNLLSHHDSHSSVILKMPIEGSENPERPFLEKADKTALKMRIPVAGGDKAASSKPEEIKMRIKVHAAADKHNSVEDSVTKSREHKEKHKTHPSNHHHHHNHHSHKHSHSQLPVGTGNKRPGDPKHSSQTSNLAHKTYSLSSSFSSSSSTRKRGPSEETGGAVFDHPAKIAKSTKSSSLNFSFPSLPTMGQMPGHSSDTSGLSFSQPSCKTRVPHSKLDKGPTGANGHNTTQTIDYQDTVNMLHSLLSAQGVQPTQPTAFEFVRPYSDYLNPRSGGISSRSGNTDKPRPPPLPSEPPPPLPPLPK

Consider `CC[C@@]1(O)C[C@H](O[C@H]2C[C@H](N(C)C)[C@H](O[C@H]3C[C@H](O)[C@H](O[C@H]4CCC(=O)[C@H](C)O4)[C@H](C)O3)[C@H](C)O2)c2c(cc3c(c2O)C(=O)c2c(O)cccc2C3=O)[C@H]1C(=O)OC` [aclacinomycin], for which the “reactivation of latent HIV-1 infection” value in assay [1] is reported as “capable of reactivating latent HIV-1 infections”. Also, the “priming effect on HIV-1 reactivation by sub-optimal dose of HRF” value in assay [2] was “strong priming effect”.

B1: HEXIM-1 (other, UniProt O94992 1-359, looked up)
chain: MAEPFLSEYQHQPQTSNCTGAAAVQEELNPERPPGAEERVPEEDSRWQSRAFPQLGGRPGPEGEGSLESQPPPLQTQACPESSCLREGEKGQNGDDSSAGGDFPPPAEVEPTPEAELLAQPCHDSEASKLGAPAAGGEEEWGQQQRQLGKKKHRRRPSKKKRHWKPYYKLTWEEKKKFDEKQSLRASRIRAEMFAKGQPVAPYNTTQFLMDDHDQEEPDLKTGLYSKRAAAKSDDTSDDDFMEEGGEEDGGSDGMGGDGSEFLQRDFSETYERYHTESLQNMSKQELIKEYLELEKCLSRMEDENNRLRLESKRLGGDDARVRELELELDRLRAENLQLLTENELHRQQERAPLSKFGD
For the molecule B1, the binding result in assay [3] is “binds”.
